Results reported in patent US20240189284A1, “COMPOSITION FOR PROMOTING LIPOLYSIS” (SUNTORY HOLDINGS LIMITED, priority 2021, published 2024).

Experiments:
[1] = mice, oral administration, vs. mice not administered; cited from earlier work
lipolysis = test: Blood metabolome evaluation study on human (placebo-controlled, randomized, double-blind, parallel-group; CE-TOF-MS); format: in vivo
Description: In order to evaluate the influence of supplements containing ergothioneine on the human blood metabolome, a placebo-controlled, randomized, double-blind, parallel-group study was conducted on subjects including male and female adults (46 subjects in a test food group; 46 subjects in a control food group; 92 subjects in total). In this study, one capsule containing 20 mg ergothioneine (test food) or one capsule not containing ergothioneine (control food) was fed per day for four weeks. The blood metabolome of each subject was measured for pre-testing before starting the study (before starting ingestion of the test food or control food). After ingestion of the test food or control food for four weeks, the blood metabolome of each subject was measured again (testing on week 4). The blood metabolome was measured by a capillary electrophoresis time-of-flight mass spectrometry (CE-TOF-MS) available from Human Metabolome Technologies, Inc. Two types of food for evaluation, which were indistinguishable in appearance, flavor, and the like, were used. • Test food: capsule containing a test substance (20 mg L-ergothioneine) • Control food: capsule containing no test substance Each type of food for evaluation contained raw materials such as dextrin, hydroxypropyl cellulose, carrageenan, potassium chloride, and titanium oxide, in addition to the test substance. The control food was produced using the same raw materials used in the test food, except that the test substance (L-ergothioneine) was not added. For each of lipid metabolism-related metabolites and lipids of various kinds for which significant changes were observed by the blood metabolome measurement, a ratio (test food group/control food group) was determined from the average of measurements (blood concentrations) of the test food group and the control food group at the time of testing on week 4. FIG. 1 is a graph showing blood metabolome measurements of the test food group and the control food group at the time of testing on week 4 in the form of ratios (test food group/control food group). […]

[2] = L-ergothioneine ingested compared to no L-ergothioneine ingested

Q: Which results are given for C[N+](C)(C)[C@@H](Cc1c[nH]c(=S)[nH]1)C(=O)[O-] [L-ergothioneine]?
A: peritesticular fat weight [1]: lower; triglyceride (neutral fat) level in plasma [1]: lower; blood free fatty acid (e.g., palmitoleic acid) concentration (lipolysis; [2]): increased; blood glycerol concentration (lipolysis; [2]): significantly increased; promotion of lipolysis (lipolysis; human adults, 20 mg L-ergothioneine per day for four weeks, blood metabolome as a whole): action to promote lipolysis
